Test results from PMC9873984, “Membrane cholesterol regulates inhibition and substrate transport by the glycine transporter, GlyT2” (Life Science Alliance, 2023).

Target: T1, GlyT2 Y430F mutant (Homo sapiens, UniProt Q9Y345, Y430F)
T1 sequence (Q9Y345 1-797 Y430F): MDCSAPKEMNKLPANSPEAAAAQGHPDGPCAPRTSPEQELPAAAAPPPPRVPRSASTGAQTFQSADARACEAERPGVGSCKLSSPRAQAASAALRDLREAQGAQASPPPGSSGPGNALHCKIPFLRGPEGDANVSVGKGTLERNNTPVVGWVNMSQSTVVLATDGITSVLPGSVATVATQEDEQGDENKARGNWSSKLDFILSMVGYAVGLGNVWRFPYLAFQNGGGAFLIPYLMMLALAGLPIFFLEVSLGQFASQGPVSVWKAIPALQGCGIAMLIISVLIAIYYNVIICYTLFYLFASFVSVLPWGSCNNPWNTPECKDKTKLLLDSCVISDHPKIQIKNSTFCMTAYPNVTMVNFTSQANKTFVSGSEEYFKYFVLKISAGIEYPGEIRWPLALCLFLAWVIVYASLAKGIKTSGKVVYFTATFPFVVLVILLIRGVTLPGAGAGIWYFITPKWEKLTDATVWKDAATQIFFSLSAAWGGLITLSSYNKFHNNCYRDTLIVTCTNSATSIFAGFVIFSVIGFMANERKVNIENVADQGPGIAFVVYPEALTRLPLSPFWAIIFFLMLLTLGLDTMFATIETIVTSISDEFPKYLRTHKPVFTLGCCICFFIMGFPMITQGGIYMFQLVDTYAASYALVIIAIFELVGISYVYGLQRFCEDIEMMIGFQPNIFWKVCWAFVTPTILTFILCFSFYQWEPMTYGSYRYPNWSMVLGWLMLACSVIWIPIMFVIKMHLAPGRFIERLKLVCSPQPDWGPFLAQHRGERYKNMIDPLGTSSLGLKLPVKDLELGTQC
Experiment: Inhibitor washout time course (reversibility)
Type: cell-based
Set-up: expressed in transfected cells; host or cells: Xenopus laevis oocytes injected with mutant RNA (pOTV vector)
Method: Reversibility of GlyT2 inhibitors was determined by applying an EC50 concentration of glycine followed by co-application of the inhibitor at an IC50 concentration once a stable current had been achieved. Inhibitors were applied for 4 min as this was sufficient time to produce substantial inhibition for each compound and allowed for their direct comparison. At the conclusion of 4 min (time 0), ND96 buffer was perfused through the recording chamber to wash the oocyte. […] Transport currents were normalized to glycine currents in the absence of inhibitor and converted to % recovery values via Y=It−It=0/Imax−It=0, where Y is % recovery, I is current in nA, Imax is the maximal current produced by the glycine EC50, and t is time in minutes. Washout kinetics were then determined by fitting % recovery values to the first-order rate equation: Y=(Y0−Plateau).e^(−Kt)+Plateau, where Y is the % recovery, Y0 is the point, which crosses the Y-axis (constrained to 0) and increases to the plateau (constrained to between 0 and 100), K is the rate constant (1/t), and t is time in minutes. […] Because of the slowly […] nature of the inhibitors, washout time courses involving cyclodextrin treatment could not be performed on the same cell. […] As these experiments could not occur on the same cell, differences in half-life and maximal recovery were analysed via an unpaired two-tailed t test.

[1] = washout after 4 min IC50 concentration

SMILES: CCCCCCCC/C=C\CCCCCCCC(=O)O[C@H](CC(=O)[O-])C[N+](C)(C)C [Oleoyl-L-Carnitine, oleoyl-L-carnitine]
- Recovery at 30 Min [1]: 24.7%

SMILES: CCCCCCCC/C=C\CCCCCCCC(=O)N[C@@H](CC(C)C)C(=O)O [Oleoyl-L-Leucine, oleoyl-L-leucine]
- Reduction in recovery of current 30 min after application, vs WT: 24.5%
- Recovery at 30 Min [1]: 26.6 ± 2.3 %

SMILES: CCCCCCCC/C=C\CCCCCCCC(=O)N[C@@H](CCCCN)C(=O)O [Oleoyl-L-Lysine, oleoyl-L-lysine]
- Increase in recovery after 30 min, vs WT: 13.4%
- Recovery at 30 Min [1]: 68.5 ± 2.1 %

SMILES: CCCCCCCC/C=C\CCCCCCCC(=O)N[C@@H](Cc1c[nH]c2ccccc12)C(=O)O [Oleoyl-L-Tryptophan, oleoyl-L-tryptophan]
- Half-life (transport current recovery) [1]: No Recovery
- Recovery at 30 Min [1]: No Recovery
